From patent US7728012B2, “Carboxamide compounds and their use as calpain inhibitors” (Abbott GmbH & Co. KG, priority 2006, dated 2010)

Experiments:
Format in all cases: biochemical
[1] = molecular target: T1, calpain-I isolated from human erythrocytes (Homo sapiens, UniProt P07384); experiment: Calpain I kinetic fluorescence enzyme inhibition assay; conditions: apparent Ki from IC50 by Cheng-Prussoff; average of 2 to 4 dose-effect plots
T1 construct: calpain-I—isolated from human erythrocytes; purchased Calbiochem 208713; host or cells: human erythrocytes (tissue isolate)
T1 sequence (P07384 1-714): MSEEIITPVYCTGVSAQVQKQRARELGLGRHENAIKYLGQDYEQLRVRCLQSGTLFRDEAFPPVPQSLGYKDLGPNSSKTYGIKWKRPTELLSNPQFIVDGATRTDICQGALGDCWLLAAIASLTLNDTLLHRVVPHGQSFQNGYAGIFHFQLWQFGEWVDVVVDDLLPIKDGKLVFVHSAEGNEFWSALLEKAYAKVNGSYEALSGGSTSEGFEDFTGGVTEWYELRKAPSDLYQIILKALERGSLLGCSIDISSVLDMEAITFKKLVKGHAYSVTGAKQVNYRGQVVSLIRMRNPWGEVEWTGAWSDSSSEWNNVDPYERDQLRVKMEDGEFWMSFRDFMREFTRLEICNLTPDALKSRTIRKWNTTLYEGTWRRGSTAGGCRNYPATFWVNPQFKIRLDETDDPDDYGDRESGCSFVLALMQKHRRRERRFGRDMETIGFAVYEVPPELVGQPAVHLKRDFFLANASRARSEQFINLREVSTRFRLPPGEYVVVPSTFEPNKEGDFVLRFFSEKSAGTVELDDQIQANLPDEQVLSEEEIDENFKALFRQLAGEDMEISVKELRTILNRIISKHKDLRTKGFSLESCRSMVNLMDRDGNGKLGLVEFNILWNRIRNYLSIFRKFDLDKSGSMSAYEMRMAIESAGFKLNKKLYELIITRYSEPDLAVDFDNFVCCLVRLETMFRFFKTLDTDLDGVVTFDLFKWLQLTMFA
T1 sequence (P04632 1-268 partner): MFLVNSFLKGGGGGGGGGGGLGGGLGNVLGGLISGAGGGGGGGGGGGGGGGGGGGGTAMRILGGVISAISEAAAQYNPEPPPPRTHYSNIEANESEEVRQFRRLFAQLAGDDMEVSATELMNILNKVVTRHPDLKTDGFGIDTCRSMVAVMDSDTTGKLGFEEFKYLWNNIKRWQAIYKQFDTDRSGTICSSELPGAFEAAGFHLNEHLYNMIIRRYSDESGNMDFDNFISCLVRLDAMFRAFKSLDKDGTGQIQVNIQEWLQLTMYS

[2] = molecular target: T2, cathepsin L isolated from human liver (Homo sapiens, UniProt P07711); experiment: Cathepsin L kinetic fluorescence enzyme inhibition assay; conditions: selectivity ratio versus calpain I
T2 construct: cathepsin L—isolated from human liver; purchased Calbiochem 219402; host or cells: human liver (tissue isolate)
Summary of the method: (§1)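 Inhibition is measured at room temperature in cysteine-containing MES buffer, pH 6.0, by continuous fluorescence at 460 nm. Cathepsin S (0.5 nM) uses 20 μM Z-Val-Val-Arg-AMC; L (1 nM) and B (0.25 nM) use Z-Phe-Arg-AMC at 2 and 100 μM respectively.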

[3] = molecular target: T3, recombinant human cathepsin S (Homo sapiens, UniProt P25774); experiment: Cathepsin S kinetic fluorescence enzyme inhibition assay; conditions: selectivity ratio versus calpain I
T3 construct: purchased Calbiochem 219343; host or cells: E. coli
Summary of the method: as §1

[4] = molecular target: T4, cathepsin B isolated from human liver (Homo sapiens, UniProt P07858); experiment: Cathepsin B kinetic fluorescence enzyme inhibition assay; conditions: selectivity ratio versus calpain I
T4 construct: cathepsin B—isolated from human liver; purchased Calbiochem 219362; host or cells: human liver (tissue isolate)
Summary of the method: as §1

[5] = molecular target: T5, cathepsin K activated from recombinant human procathepsin K (Homo sapiens, UniProt P43235); experiment: Cathepsin K kinetic fluorescence enzyme inhibition assay; conditions: selectivity ratio versus calpain I
T5 construct: purchased Calbiochem 342001; host or cells: E. coli
T5 sequence (P43235 115-329): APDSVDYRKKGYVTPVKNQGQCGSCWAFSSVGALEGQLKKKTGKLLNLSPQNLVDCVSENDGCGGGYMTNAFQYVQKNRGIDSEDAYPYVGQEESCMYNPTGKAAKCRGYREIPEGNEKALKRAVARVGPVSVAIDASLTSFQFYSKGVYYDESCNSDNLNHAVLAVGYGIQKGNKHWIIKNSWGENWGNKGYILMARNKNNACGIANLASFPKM

T3 sequence (P25774 115-331): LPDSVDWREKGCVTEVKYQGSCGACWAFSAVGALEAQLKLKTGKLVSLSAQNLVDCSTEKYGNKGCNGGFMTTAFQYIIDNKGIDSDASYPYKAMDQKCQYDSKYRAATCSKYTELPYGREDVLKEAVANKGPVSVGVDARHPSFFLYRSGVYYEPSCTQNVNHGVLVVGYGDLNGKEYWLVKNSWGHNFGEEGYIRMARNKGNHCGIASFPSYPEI
T2 sequence (P07711 114-333): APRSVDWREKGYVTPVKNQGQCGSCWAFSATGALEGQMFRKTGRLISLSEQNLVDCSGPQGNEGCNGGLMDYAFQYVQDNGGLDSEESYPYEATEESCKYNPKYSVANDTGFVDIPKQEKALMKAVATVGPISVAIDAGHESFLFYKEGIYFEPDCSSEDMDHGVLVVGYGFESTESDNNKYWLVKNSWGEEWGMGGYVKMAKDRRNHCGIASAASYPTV

Ki [1] | Sel cat. B (Ki(cathepsin B)/Ki(calpain) ratio) [4] | Sel cat. K (Ki(cathepsin K)/Ki(calpain) ratio) [5] | SMILES | Sel cat. L (Ki(cathepsin L)/Ki(calpain) ratio) [2] | Sel cat. S (Ki(cathepsin S)/Ki(calpain) ratio) [3]
≤ 40 nM | + (10≦Ki(cathepsin B)/Ki(calpain)<30) | + (10≦Ki(cathepsin K)/Ki(calpain)<30) | NC(=O)C(=O)C(Cc1ccccc1)NC(=O)c1cccnc1-n1ccc(-c2cccs2)n1 (stereo not drawn) [Example 55, N-(3-Amino-1-benzyl-2,3-dioxopropyl)-2-[3-(2-thienyl)-1H-pyrazol-1-yl]nicotinamide] | ++ (Ki(cathepsin L)/Ki(calpain) ratio of ≧50) | ++ (Ki(cathepsin S)/Ki(calpain) ratio of ≧100)
≤ 40 nM | + (10≦Ki(cathepsin B)/Ki(calpain)<30) | + (10≦Ki(cathepsin K)/Ki(calpain)<30) | NC(=O)C(=O)C(Cc1ccccc1)NC(=O)c1cccnc1-n1ccc(-c2cccc(N3CCOCC3)c2)n1 (stereo not drawn) [Example 58, N-(3-Amino-1-benzyl-2,3-dioxopropyl)-2-[3-(3-morpholin-4-ylphenyl)-1H-pyrazol-1-yl]nicotinamide] | ++ (Ki(cathepsin L)/Ki(calpain) ratio of ≧50) | ++ (Ki(cathepsin S)/Ki(calpain) ratio of ≧100)
40 to 100 nM | + (10≦Ki(cathepsin B)/Ki(calpain)<30) | + (10≦Ki(cathepsin K)/Ki(calpain)<30) | NC(=O)C(=O)C(Cc1ccccc1)NC(=O)c1cccnc1-n1ccc(-c2ccc(C(F)(F)F)cc2)n1 (stereo not drawn) [Example 60, N-(3-Amino-1-benzyl-2,3-dioxopropyl)-2-{3-[4-(trifluoromethyl)phenyl]-1H-pyrazol-1-yl}nicotinamide] | ++ (Ki(cathepsin L)/Ki(calpain) ratio of ≧50) | + (50≦Ki(cathepsin S)/Ki(calpain)<100)
≤ 40 nM | + (10≦Ki(cathepsin B)/Ki(calpain)<30) | + (10≦Ki(cathepsin K)/Ki(calpain)<30) | NC(=O)C(=O)C(Cc1ccccc1)NC(=O)c1cccnc1-n1cc2c(n1)-c1ccccc1CC2 (stereo not drawn) [Example 63, N-(3-Amino-1-benzyl-2,3-dioxopropyl)-2-(4,5-dihydro-2H-benzo[g]indazol-2-yl)nicotinamide] | ++ (Ki(cathepsin L)/Ki(calpain) ratio of ≧50) | ++ (Ki(cathepsin S)/Ki(calpain) ratio of ≧100)
40 to 100 nM | + (10≦Ki(cathepsin B)/Ki(calpain)<30) | + (10≦Ki(cathepsin K)/Ki(calpain)<30) | NC(=O)C(=O)C(Cc1ccc(Cl)cc1)NC(=O)c1cccnc1-n1ccc(-c2ccc(F)cc2)n1 (stereo not drawn) [Example 67, N-[3-Amino-1-(4-chlorobenzyl)-2,3-dioxopropyl]-2-[3-(4-fluorophenyl)-1H-pyrazol-1-yl]nicotinamide] | ++ (Ki(cathepsin L)/Ki(calpain) ratio of ≧50) | ++ (Ki(cathepsin S)/Ki(calpain) ratio of ≧100)
40 to 100 nM | + (10≦Ki(cathepsin B)/Ki(calpain)<30) | + (10≦Ki(cathepsin K)/Ki(calpain)<30) | NC(=O)C(=O)C(Cc1ccccc1)NC(=O)c1cccnc1-n1ccc(-c2ccc(N3CCCC3)cc2)n1 (stereo not drawn) [Example 69, N-(3-Amino-1-benzyl-2,3-dioxopropyl)-2-[3-(4-pyrrolidin-1-ylphenyl)-1H-pyrazol-1-yl]nicotinamide] | ++ (Ki(cathepsin L)/Ki(calpain) ratio of ≧50) | ++ (Ki(cathepsin S)/Ki(calpain) ratio of ≧100)
≤ 40 nM | + (10≦Ki(cathepsin B)/Ki(calpain)<30) | + (10≦Ki(cathepsin K)/Ki(calpain)<30) | NC(=O)C(=O)C(Cc1ccccc1)NC(=O)c1cccnc1-n1ccc(-c2cccc(Cl)c2)n1 (stereo not drawn) [Example 70, N-(3-Amino-1-benzyl-2,3-dioxopropyl)-2-[3-(3-chlorophenyl)-1H-pyrazol-1-yl]nicotinamide] | ++ (Ki(cathepsin L)/Ki(calpain) ratio of ≧50) | ++ (Ki(cathepsin S)/Ki(calpain) ratio of ≧100)
40 to 100 nM | + (10≦Ki(cathepsin B)/Ki(calpain)<30) | + (10≦Ki(cathepsin K)/Ki(calpain)<30) | NC(=O)C(=O)C(Cc1ccccc1)NC(=O)c1cccnc1-n1ccc(-c2ccccc2C(F)(F)F)n1 (stereo not drawn) [Example 72, N-(3-Amino-1-benzyl-2,3-dioxopropyl)-2-{3-[2-(trifluoromethyl)phenyl]-1H-pyrazol-1-yl}nicotinamide] | + (30≦Ki(cathepsin L)/Ki(calpain)<50) | ++ (Ki(cathepsin S)/Ki(calpain) ratio of ≧100)

SMILES | Ki [1] | Sel cat. B (Ki(cathepsin B)/Ki(calpain) ratio) [4] | Sel cat. K (Ki(cathepsin K)/Ki(calpain) ratio) [5] | Sel cat. L (Ki(cathepsin L)/Ki(calpain) ratio) [2] | Sel cat. S (Ki(cathepsin S)/Ki(calpain) ratio) [3]
NC(=O)C(=O)C(Cc1ccccc1)NC(=O)c1cccnc1-n1ccc(-c2ccccc2Cl)n1 (stereo not drawn) [Example 54, N-(3-Amino-1-benzyl-2,3-dioxopropyl)-2-[3-(2-chlorophenyl)-1H-pyrazol-1-yl]nicotinamide] | 40 to 100 nM | ++ (Ki(cathepsin B)/Ki(calpain) ratio of ≧30) | ++ (Ki(cathepsin K)/Ki(calpain) ratio of ≧30) | ++ (Ki(cathepsin L)/Ki(calpain) ratio of ≧50) | ++ (Ki(cathepsin S)/Ki(calpain) ratio of ≧100)
NC(=O)C(=O)C(Cc1ccccc1)NC(=O)c1cccnc1-n1ccc(-c2ccc(F)cc2Cl)n1 (stereo not drawn) [Example 71, N-(3-Amino-1-benzyl-2,3-dioxopropyl)-2-[3-(2-chloro-4-fluorophenyl)-1H-pyrazol-1-yl]nicotinamide] | 40 to 100 nM | ++ (Ki(cathepsin B)/Ki(calpain) ratio of ≧30) | ++ (Ki(cathepsin K)/Ki(calpain) ratio of ≧30) | ++ (Ki(cathepsin L)/Ki(calpain) ratio of ≧50) | ++ (Ki(cathepsin S)/Ki(calpain) ratio of ≧100)
NC(=O)C(=O)C(Cc1ccccc1)NC(=O)c1cccnc1-n1ccc(-c2ccccc2F)n1 (stereo not drawn) [Example 76, N-(3-Amino-1-benzyl-2,3-dioxopropyl)-2-[3-(2-fluorophenyl)-1H-pyrazol-1-yl]nicotinamide] | ≤ 40 nM | ++ (Ki(cathepsin B)/Ki(calpain) ratio of ≧30) | + (10≦Ki(cathepsin K)/Ki(calpain)<30) | ++ (Ki(cathepsin L)/Ki(calpain) ratio of ≧50) | ++ (Ki(cathepsin S)/Ki(calpain) ratio of ≧100)
NC(=O)C(=O)C(Cc1ccccc1)NC(=O)c1cccnc1-n1ccc(-c2ccc(Cl)cc2Cl)n1 (stereo not drawn) [Example 79, N-(3-Amino-1-benzyl-2,3-dioxopropyl)-2-[3-(2,4-dichlorophenyl)-1H-pyrazol-1-yl]nicotinamide] | 40 to 100 nM | ++ (Ki(cathepsin B)/Ki(calpain) ratio of ≧30) | ++ (Ki(cathepsin K)/Ki(calpain) ratio of ≧30) | ++ (Ki(cathepsin L)/Ki(calpain) ratio of ≧50) | ++ (Ki(cathepsin S)/Ki(calpain) ratio of ≧100)
